Data reported in article PMC4829233, “Identification of Novel Chemical Scaffolds Inhibiting Trypanothione Synthetase from Pathogenic Trypanosomatids” (PLoS Neglected Tropical Diseases, 2016).
Values joined by “and” are separate entries in the source; they are usually repeats but may differ in a detail not shown here. Equal entries are not always repeated. Where two headings read alike, the source gives them in different places.

What was measured:
[1] = system: bloodstream Trypanosoma brucei brucei; test: Proliferation/cytotoxicity assay, infective T. b. brucei; assay type: cell-based; settings: bloodstream T. b. brucei, 24 h, read-out: T. b. Brucei EC50
[2] = molecular target: TcTryS (Trypanosoma cruzi trypanothione synthetase) (Trypanosoma cruzi, UniProt Q9GT49); test: biochemical; assay type: biochemical; settings: for remaining activity at 30 µM: read-out: TcTryS Activity ± 2σn-1 (%); for inhibition at 30 µM: read-out: % TcTryS inhibition ± 2σn-1
TcTryS (Trypanosoma cruzi trypanothione synthetase), sequence (Q9GT49 whole entry): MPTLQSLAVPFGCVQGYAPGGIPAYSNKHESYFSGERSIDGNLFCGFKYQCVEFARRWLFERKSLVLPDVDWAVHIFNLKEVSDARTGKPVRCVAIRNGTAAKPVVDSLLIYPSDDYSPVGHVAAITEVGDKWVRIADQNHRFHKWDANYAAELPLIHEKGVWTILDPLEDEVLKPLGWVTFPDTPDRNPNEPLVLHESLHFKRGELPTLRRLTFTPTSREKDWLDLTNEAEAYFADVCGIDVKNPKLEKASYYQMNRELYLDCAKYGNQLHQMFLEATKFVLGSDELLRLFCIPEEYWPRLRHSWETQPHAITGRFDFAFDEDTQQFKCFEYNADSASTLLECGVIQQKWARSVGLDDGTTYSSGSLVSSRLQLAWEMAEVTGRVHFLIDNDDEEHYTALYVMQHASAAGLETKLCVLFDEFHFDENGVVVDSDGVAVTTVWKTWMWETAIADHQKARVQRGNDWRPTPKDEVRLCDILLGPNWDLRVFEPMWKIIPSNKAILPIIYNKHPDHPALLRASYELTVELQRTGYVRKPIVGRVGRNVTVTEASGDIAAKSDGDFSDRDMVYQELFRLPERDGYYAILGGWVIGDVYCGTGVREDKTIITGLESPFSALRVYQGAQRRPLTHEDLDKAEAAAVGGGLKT

[3] = molecular target: LiTryS (Leishmania infantum trypanothione synthetase) (Leishmania infantum, UniProt A4I2Z3); test: biochemical; assay type: biochemical; settings: for activity at 30 µM: read-out: LiTryS Activity ± 2σn-1 (%); for inhibition at 30 µM: read-out: % LiTryS inhibition ± 2σn-1
LiTryS (Leishmania infantum trypanothione synthetase), sequence (A4I2Z3 1-652): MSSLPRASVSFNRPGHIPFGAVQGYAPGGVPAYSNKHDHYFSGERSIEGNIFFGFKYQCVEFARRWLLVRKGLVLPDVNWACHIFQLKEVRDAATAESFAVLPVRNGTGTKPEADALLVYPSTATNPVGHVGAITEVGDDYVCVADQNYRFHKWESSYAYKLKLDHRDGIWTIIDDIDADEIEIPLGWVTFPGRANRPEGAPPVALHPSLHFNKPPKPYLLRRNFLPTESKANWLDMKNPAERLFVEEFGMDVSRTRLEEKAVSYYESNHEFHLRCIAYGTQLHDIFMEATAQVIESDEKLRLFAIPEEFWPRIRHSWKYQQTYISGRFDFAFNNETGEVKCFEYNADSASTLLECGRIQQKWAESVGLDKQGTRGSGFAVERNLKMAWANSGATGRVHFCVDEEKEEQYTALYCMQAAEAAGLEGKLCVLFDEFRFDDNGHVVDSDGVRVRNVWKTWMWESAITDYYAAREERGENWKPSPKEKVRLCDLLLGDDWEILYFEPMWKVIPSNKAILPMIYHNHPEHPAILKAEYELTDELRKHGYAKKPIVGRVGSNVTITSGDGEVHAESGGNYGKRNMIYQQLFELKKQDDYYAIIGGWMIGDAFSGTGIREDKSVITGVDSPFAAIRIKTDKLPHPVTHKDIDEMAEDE

[4] = molecular target: TbTryS (Trypanosoma brucei trypanothione synthetase) (Trypanosoma brucei brucei, UniProt Q8IEX1); test: biochemical; settings: for activity at 30 µM: read-out: TbTryS Activity ± 2σn-1 (%); for inhibition at 30 µM: read-out: % TbTryS inhibition ± 2σn-1
TbTryS (Trypanosoma brucei trypanothione synthetase), sequence (Q8IEX1 1-627): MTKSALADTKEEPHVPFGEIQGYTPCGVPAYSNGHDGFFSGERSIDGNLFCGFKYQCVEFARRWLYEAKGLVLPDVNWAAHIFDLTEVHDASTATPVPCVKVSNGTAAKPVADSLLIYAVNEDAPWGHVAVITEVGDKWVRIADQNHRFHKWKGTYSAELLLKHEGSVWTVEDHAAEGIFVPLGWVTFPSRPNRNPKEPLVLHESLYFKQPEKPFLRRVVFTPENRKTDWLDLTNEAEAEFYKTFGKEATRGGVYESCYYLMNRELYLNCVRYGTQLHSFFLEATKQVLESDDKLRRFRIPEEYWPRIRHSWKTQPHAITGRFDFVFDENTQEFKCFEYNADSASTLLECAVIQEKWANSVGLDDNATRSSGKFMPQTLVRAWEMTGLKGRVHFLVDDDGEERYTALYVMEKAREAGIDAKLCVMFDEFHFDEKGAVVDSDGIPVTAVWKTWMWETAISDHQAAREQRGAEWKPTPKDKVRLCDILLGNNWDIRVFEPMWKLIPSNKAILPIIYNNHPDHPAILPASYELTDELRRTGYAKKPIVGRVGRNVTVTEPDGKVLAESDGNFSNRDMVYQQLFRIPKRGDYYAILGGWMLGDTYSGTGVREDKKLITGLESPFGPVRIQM

| Compound | TcTryS Activity ± 2σn-1 (%) [2] | LiTryS Activity ± 2σn-1 (%) [3] | TbTryS Activity ± 2σn-1 (%) [4] | other results |
| --- | --- | --- | --- | --- |
| CC1CS(=O)(=O)CCN1/N=C/c1ccc([N+](=O)[O-])o1 (stereo not drawn) [nifurtimox, reference compound] |  |  |  | EC50 [1]: 5 µM |
| Cn1c(=O)c2c(nc(N/N=C\c3ccc(O)cc3O)n2CC(O)COc2ccccc2)n(C)c1=O (stereo not drawn) [TC227, (Z)-8-(2-(2,4-dihydroxybenzylidene)hydrazinyl)-7-(2-hydroxy-3-phenoxypropyl)-1,3-dimethyl-1H-purine-2,6(3H,7H)-dione] | 161.6 ± 5.3; 3 (0.98) % |  |  | % TryS activity (TcTryS) [2]: 1.1 ± 3.1; 4% and 0.2 ± 3.1; 4% and 1.1 ± 2.1; 4%; remaining activity at 30 µM [2]: 162%; activity at 30 µM [3]: 88.5 ± 7.1%; activity at 30 µM [4]: 102 ± 2.3% |
| O=C(C1=C(O)C(=O)N(c2nc3ccc(Cl)cc3s2)C1c1ccc(F)cc1)c1ccc2c(c1)OCCO2 (stereo not drawn) [ADMRC150] | 81.2 ± 4.1; 4% | 63.0 ± 6.8; 7% | 101.4 ± 8.2; 12% | % LiTryS inhibition ± 2σn-1 [3]: ~35% |
| c1ccc(CNCCCCCCCCCCCCNCc2ccccc2)cc1 [EAP1-9] | 87.3 ± 5.4; 4% | 89.6 ± 9.4; 3% | 74.9 ± 4.1; 4% |  |
| COc1cc(CNCCCNCc2ccc(OCc3ccccc3)c(OC)c2)ccc1OCc1ccccc1 [APC1-79] | 63.3 ± 2.7; 2% | 72.1 ± 3.4; 4 (1.27) % | 66.0 ± 2.9; 4% |  |
| Cc1ccc2nc(N3C(=O)C(O)=C(C(=O)c4ccc5c(c4)OCCO5)C3c3ccccc3)sc2c1 (stereo not drawn) [ADMRC151] | 97.0 ± 5.2; 3% | 83.1 ± 2.3; 3% | 107.7 ± 6.1; 3% |  |
| Brc1ccc(CNCCCCCCCCNCc2ccc(Br)cc2)cc1 [EAP1-46] | 93.7 ± 7.6; 3% | 61.8 ± 3.9; 3% | 73.4 ± 1.7; 3% |  |
| COc1cc2no[n+]([O-])c2cc1OC [Compound J32] | 98.1 ± 6.4; 4% | 72.7 ± 7.2; 4% | 93.4 ± 4.5; 4% |  |
| COc1ccc(C2C(C(=O)c3ccc(OC)c(OC)c3)=C(O)C(=O)N2c2nc3ccc(Cl)cc3s2)cc1 (stereo not drawn) [ADPKN163] | 113.6 ± 3.4; 4% | 82.3 ± 7.7; 3% | 88.0 ± 5.0; 4% |  |
| COc1cc(CNCCCNCc2ccc(O)c(OC)c2)ccc1O [APC1-82] | 92.9 ± 5.6; 4% | 84.9 ± 0.9; 4% | 88.1 ± 4.4; 3% |  |
| c1ccc(COc2ccc(CNCCCCCCCCCCNCc3ccc(OCc4ccccc4)cc3)cc2)cc1 [APC1-117] | 90.8 ± 12.3; 2% | 69.8 ± 6.5; 3% | 71.4 ± 6.1; 4% |  |
| COc1cc(CNCCCCNCc2ccc(O)c(OC)c2)ccc1O [APC1-93] | 94.4 ± 2.4; 4% | 101.3 ± 8.7. 4% | 94.0 ± 9.1; 5% |  |
| CC(C)(C)NC(=O)Nc1ncc2cc(-c3ccc4c(c3)OCO4)c(NC(=O)NC(C)(C)C)nc2n1 [ZEA40] |  |  |  | inhibition at 30 µM [2]: 50%; inhibition at 30 µM [3]: 15.3 ± 8.3%; activity at 30 µM [3]: 84.7%; inhibition at 30 µM [4]: 25.3 ± 5.2%; activity at 30 µM [4]: 74.7% |
| [O-][n+]1onc2ccccc21 [J09/J34] | 102.2 ± 3.3; 3% | 84.9 ± 5.5; 4% | 90.9 ± 5.9; 4% |  |
| COc1ccc(C2C(C(=O)c3ccc4c(c3)OCCO4)=C(O)C(=O)N2c2nc3ccc(Cl)cc3s2)cc1 (stereo not drawn) [AD84] | 98.7 ± 5.1; 4% |  |  | remaining activity at 30 µM [2]: 98.7 ± 5.1%; activity at 30 µM [3]: 82.1 ± 4%; TbTryS Activity ± 2σn-1 (%) ([4]; 30 µM): 119.0 ± 6.3; 8 (0.95) %; activity at 30 µM [4]: 119% |
| COc1ccc(C2C(C(=O)c3ccc4c(c3)OCCO4)=C(O)C(=O)N2c2nc3ccccc3s2)cc1 (stereo not drawn) [ADPKN165] | 107.1 ± 4.5; 4% |  |  | remaining activity at 30 µM [2]: 107 ± 4.5%; activity at 30 µM [3]: 83.5 ± 6%; activity at 30 µM [4]: 166% |
| COc1cc(CNCCCCCCNCc2ccc(O)c(OC)c2)ccc1O [APC1-121] | 92.9 ± 5.0; 4% | 95.0 ± 7.8; 4% | 91.1 ± 4.8; 3% |  |
| COc1ccc2nc(N3C(=O)C(O)=C(C(=O)c4ccc5c(c4)OCCO5)C3c3ccc(O)c(OC)c3)sc2c1 (stereo not drawn) [ADMRC156] | 102.2 ± 8.8; 4% | 79.4 ± 4.6; 4% | 108.1 ± 6.5; 3% |  |
| COc1ccc(C(=O)C2=C(O)C(=O)N(c3nc4ccc(Cl)cc4s3)C2c2ccc(F)cc2)cc1OC (stereo not drawn) [ADPKN164] | 99.6 ± 5.7; 4% |  |  | remaining activity at 30 µM [2]: 99.6 ± 5.7%; inhibition at 30 µM [3]: ~35%; activity at 30 µM [3]: 66 ± 3.4%; TbTryS Activity ± 2σn-1 (%) ([4]; 30 µM): 123.2 ± 7.0; 4 (0.83) %; activity at 30 µM [4]: 123% |
| Cc1cc2no[n+]([O-])c2cc1C [Compound J11] | 86.4 ± 2.9; 4% | 103.6 ± 10.4; 3% | 88.8 ± 5.8; 4% |  |

| Compound | TcTryS Activity ± 2σn-1 (%) [2] | LiTryS Activity ± 2σn-1 (%) [3] | TbTryS Activity ± 2σn-1 (%) [4] | other results |
| --- | --- | --- | --- | --- |
| CCCCn1c(=O)[nH]c(=O)c2c1nc(CSc1cccc(C(F)(F)F)c1)n2C [Compound C3, reference compound] | 91.1 ± 4.6; 4% | 84.5 ± 3.3; 3% | 92.7 ± 3.6; 3% |  |
| COc1ccc(CNCCCCCCNCc2ccc(OC)cc2)cc1 [APC1-98] | 94.2 ± 5.5; 2% | 79.6 ± 5.6; 4% | 72.8 ± 3.7; 4% |  |
| Brc1ccc(CNCCCCCCCCCCNCc2ccc(Br)cc2)cc1 [EAP1-57] | 81.2 ± 4.2; 3% | 75.2 ± 4.5; 3% | 62.6 ± 3.6; 3 (1.26) % |  |
| COc1ccc(C2C(C(=O)c3ccc4c(c3)OCCO4)=C(O)C(=O)N2c2nc3ccc(C)cc3s2)cc1OC (stereo not drawn) [ADMRC153] | 109.3 ± 4.7; 4% | 87.6 ± 6.0; 4% | 103.3 ± 3.2; 3% |  |
| COc1cc(CNCCCCCCCCNCc2ccc(O)c(OC)c2)ccc1O [APC1-122] | 94.5 ± 7.0; 4% | 102.8 ± 8.6; 3% | 91.6 ± 3.6; 3% |  |
| COc1ccc(C2C(C(=O)c3ccc4c(c3)OCCO4)=C(O)C(=O)N2c2nc3ccc(OC)cc3s2)cc1 (stereo not drawn) [ADPKN160] | 97.6 ± 3.7; 4% |  |  | remaining activity at 30 µM [2]: 97.6 ± 3.7%; activity at 30 µM [3]: 77.9 ± 3.6%; TbTryS Activity ± 2σn-1 (%) ([4]; 30 µM): 116.4 ± 4.2; 4 (0.87) %; activity at 30 µM [4]: 116% |
| COc1ccc(CNCCCCCCCCCCCCNCc2ccc(OC)cc2)cc1 [EAP1-11] | 82.8 ± 7.6; 3% | 62.0 ± 7.8; 4% | 77.2 ± 4.5; 5 (1.30) % |  |
| COc1cc(C2C(C(=O)c3ccc4c(c3)OCCO4)=C(O)C(=O)N2c2nc3ccc(C)cc3s2)ccc1O (stereo not drawn) [ADMRC152] | 103.1 ± 6.2; 3% | 92.5 ± 6.6; 4% | 115.4 ± 4.3; 3% |  |
| CCNC(=S)Nc1nc2nc(N)ncc2cc1-c1ccc2c(c1)OCO2 [ZEA41] |  |  |  | inhibition at 30 µM [2]: 50%; inhibition at 30 µM [3]: 13.6 ± 3.4%; activity at 30 µM [3]: 86.4%; inhibition at 30 µM [4]: 20.9 ± 4.4%; activity at 30 µM [4]: 79.1% |
| [O-][n+]1onc2cc(F)ccc21 [Compound J31] | 118.8 ± 6.1; 4 (1.00) % |  |  | remaining activity at 30 µM [2]: 119%; activity at 30 µM [3]: 84.1 ± 0.001%; activity at 30 µM [4]: 96.2 ± 3.7% |
| c1ccc(CNCCCCCCCCNCc2ccccc2)cc1 [EAP1-5 (I)] | 82.8 ± 5.2; 3% | 62.8 ± 3.9; 4% | 78.3 ± 3.6; 4% |  |
| CCNC(=S)Nc1nc2nc(NCCCN3CCOCC3)ncc2cc1-c1cc(OC)cc(OC)c1 [ZVR159] | 168.6 ± 4.1; 4 (1.10) % |  |  | % TryS activity (TcTryS) [2]: 1.2 ± 3.1; 3% and 0.2 ± 4.0; 4% and 1.2 ± 5.1; 4%; remaining activity at 30 µM [2]: 169%; activity at 30 µM [3]: 101 ± 5.8%; activity at 30 µM [4]: 81.3 ± 1.6% |
| Clc1ccc(CNCCCCCCCCNCc2ccc(Cl)cc2)cc1 [EAP1-43] | 87.9 ± 4.7; 4% | 78.0 ± 5.9; 4% | 69.7 ± 3.0; 4% |  |
| CCCCN(CCCC)C(=O)c1cnc(N)o1 [ZVR103] | 100.0 ± 5.0; 2% | 99.4 ± 5.6; 4% | 82.4 ± 4.7; 3% |  |
| COc1ccc2c(c1)no[n+]2[O-] [Compound J14] | 77.2 ± 4.4; 4% | 96.1 ± 7.3; 4% | 93.1 ± 5.6; 4% |  |
| c1ccc(COc2ccc(CNCCCCNCc3ccc(OCc4ccccc4)cc3)cc2)cc1 [APC1-87] |  |  |  | inhibition at 30 µM [2]: 26.6 ± 4.1%; remaining activity at 30 µM [2]: 73.4%; IC50 ([3]; read-out: LiTryS IC50 (estimated)): ~30 µM; inhibition at 30 µM [4]: 37.9 ± 4%; activity at 30 µM [4]: 62.1% |
| Cc1ccc2nc(N3C(=O)C(O)=C(C(=O)c4ccc5c(c4)OCCO5)C3c3ccc(O)cc3)sc2c1 (stereo not drawn) [AD82] | 103.4 ± 6.4; 2% | 86.2 ± 5.8; 4% | 107.7 ± 6.4; 4% |  |
| [O-][n+]1onc2cc(Cl)ccc21 [Compound J12] | 63.7 ± 0.5; 4% | 93.8 ± 3.9; 4% | 92.7 ± 2.7; 3% |  |
| O=C(C1=C(O)C(=O)N(c2nc3ccc(Cl)cc3s2)C1c1ccc(O)cc1)c1ccc2c(c1)OCCO2 (stereo not drawn) [AD83] | 93.6 ± 4.7; 3 (0.93) % | 83.9 ± 3.8; 4% | 106.9 ± 4.7; 3% |  |
| COc1cc(CNCCCCCCCCCCNCc2ccc(O)c(OC)c2)ccc1O [APC1-123] | 88.8 ± 6.5; 4% | 94.3 ± 8.2; 3% | 86.0 ± 5.5; 3% |  |
